Assay results from patent US20240174693A1, “SOMATOSTATIN RECEPTOR SUBTYPE 4 (SSTR4) AGONISTS AND THEIR APPLICATIONS” (Humanwell Pharmaceutical US, priority 2022, published 2024).
≈ marks a conversion by molar mass, not a printed value.

Tests used:
KM mice = test: Acetic acid induced writhing test; type: in vivo; settings: 30 mg/kg s.c.; for No. of writhing's: 0.6% acetic acid 15 min after dosing, 30-minute period; for Percentage of Inhibition / Significant compared to the model group: writhing
Protocol: Fifteen minutes after administration, a 0.6% acetic acid solution (5 mL/kg) was injected into the abdominal cavity. The mice were then placed in an observation box, and the number of writhing episodes was recorded within a 30-minute period. The assessment of pain intensity was based on the observation of the mice's writhing behavior.

CYP2C9 = target: T1, CYP2C9 (Homo sapiens, UniProt P11712); test: CYP inhibition in HLM, CYP2C9; type: in vitro ADME; settings: read-out: CYP inhibition (IC50 um) 2C9
T1 construct: from tissue; host or cells: liver microsomes (HLM)
Protocol: (§1) 0.1 M potassium phosphate buffer (K-buffer), pH 7.4 was preheated. K-buffer was prepared by mixing 9.5 mL Stock A into 40.5 mL Stock B. The total volume was brought to 500 mL with Milli-Q water. The buffer was titrated with KOH or H3PO4 to pH 7.4. Stock A (1 M monobasic potassium phosphate) was prepared by adding 136.5 g of monobasic potassium phosphate into 1 L of Milli-Q water. Stock B (1 M dibasic potassium phosphate) was prepared by adding 174.2 g of dibasic potassium phosphate in 1 L of Milli-Q water.
(§2) Serial dilution for test compound and reference inhibitors (400×) was prepared in a 96-well plate. 8 μL of 10 mM test compounds was transferred to 12 μL of ACN. Inhibitor spiking solution was prepared for CYP1A2, CYP2C9 and CYP2D6 in cocktail by adding 12 μL of 1 mM α-Naphthoflavon, 10 μL of 40 mM Sulfaphenazole, 10 μL of 10 mM Quinidine, and 8 μL of DMSO. Individual inhibitor spiking solution for CYP3A4 and CYP2C19 was prepared by adding 8 μL of DMSO stock to 12 μL of ACN. 1:3 serial dilutions were performed in DMSO:ACN mixture (v/v: 40:60).
(§3) NADPH cofactor was prepared by dissolving 66.7 mg NADPH in 10 mL 0.1 M K-buffer, pH7.4. 4×substrate (2 mL for each isoform) was prepared. HLM was added were required on ice. 0.2 mg/mL HLM solution was prepared using 10 μL of 20 mg/mL to 990 μL of 0.1 M K-buffer on ice. 400 μL of 0.2 mg/mL HLM were added to the assay wells and then 2 μL of 400×test compound set were added into the designated wells on ice. 200 μL of 0.2 mg/mL HLM was added to the assay wells and followed by 1 μL of serially diluted reference inhibtor solution into the designated wells on ice. The following solutions were added in duplicated in a 96-well plate on ice: 30 μL of 2×test compound and reference compound in 0.2 mg/mL HLM solution and 15 μL of 4×substrate solution. The 96-well assay plate and NADPH solution were pre-incubated at 37° C. for 5 minutes. 15 μL of pre-warmed 8 mM NADPH solution was added to into the assay plates to initiate the reaction. The assay plate was incubated at 37° C. 5 mins, 10 mins, and 45 mins. […]

CYP1A2 = target: T2, CYP1A2 (Homo sapiens, UniProt P05177); test: CYP inhibition in HLM, CYP1A2; type: in vitro ADME; settings: read-out: CYP inhibition (IC50 um) 1A2
T2 construct: from tissue; host or cells: liver microsomes (HLM)
T2 sequence (P05177 1-516): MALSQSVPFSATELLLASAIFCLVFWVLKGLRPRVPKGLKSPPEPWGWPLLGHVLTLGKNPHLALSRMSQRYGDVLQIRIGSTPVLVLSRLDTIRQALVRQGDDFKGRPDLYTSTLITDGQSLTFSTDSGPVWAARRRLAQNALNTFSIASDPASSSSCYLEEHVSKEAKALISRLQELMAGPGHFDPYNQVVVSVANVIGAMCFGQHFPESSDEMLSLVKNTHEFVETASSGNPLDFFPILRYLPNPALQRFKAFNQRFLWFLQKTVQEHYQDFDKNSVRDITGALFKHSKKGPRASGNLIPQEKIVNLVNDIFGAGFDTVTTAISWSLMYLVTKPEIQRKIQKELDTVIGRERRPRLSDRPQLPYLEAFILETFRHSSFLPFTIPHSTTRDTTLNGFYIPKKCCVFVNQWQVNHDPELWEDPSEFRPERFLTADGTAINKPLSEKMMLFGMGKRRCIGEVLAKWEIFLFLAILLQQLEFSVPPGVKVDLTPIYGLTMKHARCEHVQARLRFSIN
Protocol: as §1, §2, §3

[1] = Metabolic stability in liver microsomes (rat); type: in vitro ADME; settings: for CLint scaled at 1 μM: pH 7.4; for half-life at 1 μM: pH 7.4, read-out: Metabolic stability T½
Protocol: Buffers A-C were prepared for use in the metabolic study. The buffers were as follows: Buffer A: 1.0 L of 0.1 M monobasic Potassium Phosphate buffer containing 1.0 mM EDTA; Buffer B: 1.0 L of 0.1 M Dibasic Potassium Phosphate buffer containing 1.0 mM EDTA; and Buffer C: 0.1 M Potassium Phosphate buffer, 1.0 mM EDTA, pH 7.4 by titrating 700 mL of buffer B with buffer A while monitoring with the pH meter.
Ketanserin was used as the reference compound. Reference compound and test compound spiking solutions (500 μM spiking solution) were prepared by adding 10 μL of 10 mM DMSO stock solution into 190 μL ACN. 1.5 μL of 500 μM spiking solution (0.75 mg/mL) and 18.75 μL of 20 mg/mL liver microsomes were added into 479.75 μL of Buffer C on ice.
A 6 mM NADPH stock solution was prepared by dissolving an appropriate amount of NADPH into buffer C. 30 μL of 1.5 μM spiking solution containing 0.75 mg/mL microsomes solution was dispensed to the assay plates designated for different time points (0-, 5-, 15-, 30-, 45-min) on ice. […] All the other plates were pre-incubated at 37° C. for 5 minutes. 15 μL of 6 mM NADPH stock solution was added to the plates to start the reaction and time. At 5-min, 15-min, 30-min, and 45-min, 135 μL of ACN containing internal standard were added to the wells of corresponding plates, respectively, to stop the reaction. […]

Solubility = type: physicochemical; settings: aqueous buffer, kinetic from dmso stock; PBS(Ph 7.4), 1 hour shaking at room temperature; read-out: Solubility SolubilityU (um)
Protocol: 10 μL test compound was added to 990 μL buffer. Sample tubes were shaken for 1 hour (1000 rpm) at room temperature. Samples were centrifuged for 10 minutes at 1200 rpm to precipitate un-dissolved particles. Supernatants were collected for LCMSMS or LC-UV analysis.

CYP3A4 = target: T3, CYP3A4 (Homo sapiens, UniProt P08684); test: CYP inhibition in HLM, CYP3A4; type: in vitro ADME; settings: read-out: CYP inhibition (IC50 um) 3A
T3 construct: from tissue; host or cells: liver microsomes (HLM)
Protocol: as §1, §2, §3

T3 sequence (P08684 whole entry): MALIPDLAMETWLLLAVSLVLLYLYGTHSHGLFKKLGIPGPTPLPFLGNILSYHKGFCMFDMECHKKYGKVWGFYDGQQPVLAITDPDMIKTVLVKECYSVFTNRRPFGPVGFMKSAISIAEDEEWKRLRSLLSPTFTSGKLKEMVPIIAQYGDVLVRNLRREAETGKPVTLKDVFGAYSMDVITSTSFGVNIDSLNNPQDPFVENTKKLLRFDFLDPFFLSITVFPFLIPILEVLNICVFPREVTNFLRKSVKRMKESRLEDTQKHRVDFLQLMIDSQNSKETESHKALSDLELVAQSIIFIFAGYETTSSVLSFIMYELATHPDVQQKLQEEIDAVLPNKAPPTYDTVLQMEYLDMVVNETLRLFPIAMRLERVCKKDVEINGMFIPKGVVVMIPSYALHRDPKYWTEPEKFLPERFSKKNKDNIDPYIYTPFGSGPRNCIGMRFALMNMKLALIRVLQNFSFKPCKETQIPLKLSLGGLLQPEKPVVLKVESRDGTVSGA
T1 sequence (P11712 whole entry): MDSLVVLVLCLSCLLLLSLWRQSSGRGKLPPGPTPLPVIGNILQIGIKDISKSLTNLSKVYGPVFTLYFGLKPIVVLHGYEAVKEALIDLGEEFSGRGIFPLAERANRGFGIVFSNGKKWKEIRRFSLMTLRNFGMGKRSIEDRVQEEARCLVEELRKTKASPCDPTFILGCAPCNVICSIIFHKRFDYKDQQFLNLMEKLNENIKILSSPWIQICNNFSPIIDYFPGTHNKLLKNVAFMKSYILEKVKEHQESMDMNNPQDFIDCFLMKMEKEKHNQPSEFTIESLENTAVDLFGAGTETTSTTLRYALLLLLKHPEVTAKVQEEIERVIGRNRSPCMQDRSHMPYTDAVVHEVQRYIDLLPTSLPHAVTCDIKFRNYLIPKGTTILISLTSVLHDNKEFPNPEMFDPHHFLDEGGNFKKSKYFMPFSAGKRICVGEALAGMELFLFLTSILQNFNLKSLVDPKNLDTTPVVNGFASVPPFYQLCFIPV

| Structure (SMILES) | No. of writhing's (KM mice) | Percentage of Inhibition (KM mice) [%] | Significant compared to the model group (KM mice) | IC50 (CYP2C9) [µM] | IC50 (CYP1A2) [µM] | CLint scaled at 1 μM [1] [L/h/kg] | half-life at 1 μM [1] [h] | solubility at 1 h (Solubility) [µM] | IC50 (CYP3A4) [µM] |
| --- | --- | --- | --- | --- | --- | --- | --- | --- | --- |
| CC(C)(NC(=O)[C@H]1[C@@H]2CNC[C@H]1C2)c1nc(C2CC2)c2ccccn12 [Compound 9, (1R,5S,6r)-N-(2-(1-cyclopropylimidazo[1,5-a]pyridin-3-yl)propan-2-yl)-3-azabicyclo[3.1.1]heptane-6-carboxamide] | 8 | 62.34 | Yes | > 10 | > 10 | 0.104 | 23.9 | 130.5 ± 0.02 (≈ 44.2 µg/mL) | > 10 |
| CC(C)(NC(=O)[C@H]1[C@@H]2CNC[C@H]1C2)c1ncc2c(Cl)cccn12 [Compound 7, (1R,5S,6r)-N-(2-(8-chloroimidazo[1,5-a]pyridin-3-yl)propan-2-yl)-3-azabicyclo[3.1.1]heptane-6-carboxamide] | 10 | 69.16 | Yes | > 10 | > 10 | 1.11 | 2.25 | 101.75 ± 0.03 (≈ 33.9 µg/mL) | > 10 |
| CC(C)(NC(=O)[C@H]1[C@@H]2CNC[C@H]1C2)c1ncc2c(Br)cccn12 [Compound 8, (1R,5S,6r)-N-(2-(8-bromoimidazo[1,5-a]pyridin-3-yl)propan-2-yl)-3-azabicyclo[3.1.1]heptane-6-carboxamide] | 3 | 86.26 | Yes | > 10 | > 10 | 0.179 | 9.71 | 91.6 (≈ 34.6 µg/mL) | > 10 |
